pKi: −log10 of the molar value.
Experiments:
Carbonic anhydrase 1 = Carbonic anhydrase 1 (Homo sapiens, UniProt P00915); experiment: Inhibition of human carbonic anhydrase 1 after 6 hrs by Lineweaver-Burk plot analysis
Carbonic anhydrase 2 = Carbonic anhydrase 2 (Homo sapiens, UniProt P00918); experiment: Inhibition of human carbonic anhydrase 2 after 6 hrs by Lineweaver-Burk plot analysis

Chain of Carbonic anhydrase 1 (P00915 whole entry): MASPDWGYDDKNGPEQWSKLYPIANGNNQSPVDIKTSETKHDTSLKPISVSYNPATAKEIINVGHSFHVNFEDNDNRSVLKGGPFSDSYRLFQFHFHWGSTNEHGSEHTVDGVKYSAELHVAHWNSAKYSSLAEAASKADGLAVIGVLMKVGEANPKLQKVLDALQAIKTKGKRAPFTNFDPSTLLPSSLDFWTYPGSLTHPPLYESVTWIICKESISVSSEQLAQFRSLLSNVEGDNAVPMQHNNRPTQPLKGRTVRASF

## Cc1ccc(C(=O)C(O)(O)C(F)(F)F)cc1
Carbonic anhydrase 1
  pKi: 3.39
Carbonic anhydrase 2
  pKi: 5.05

Reference: ChEMBL document CHEMBL1759934, “Virtual screening-driven identification of human carbonic anhydrase inhibitors incorporating an original, new pharmacophore” (Bioorg Med Chem Lett, 2011)
